In paper PMC7824363, “The Cytotoxicity of RNase-Derived Peptides” (Biomolecules, 2020):

What was measured:
[1] = biological target: epidermal growth factor receptor (human (endogenous in BT-20)) (UniProt P00533)
BT-20 cells [2] = test: MTT assay, BT-20 cell viability; assay type: cell-based, human; conditions: 48 h
Method: (§1) The human alveolar adenocarcinoma cell line (A549), two breast cancer cell lines (MCF-7 and BT-20), and cervical cancer cell line (HeLa) were obtained from American Type Culture […] (Rockville, MD, USA). Cells were grown at 37 °C in humidified 5% CO2 atmosphere using RPMI 1640 medium for A549 cells and Dulbecco’s modified Eagle’s medium for MCF-7, BT-20, and HeLa cells supplemented with 10% fetal bovine serum (HyClone), 2 mM glutamine, and antibiotics (penicillin and streptomycin, 100 U/mL each).
(§2) The viability of untreated control cells and cells treated with binase and binase-derived peptides at different concentrations (5, 50, and 125 μM) was determined according to the mitochondrial nicotinamide adenine dinucleotide phosphate NAD(P)H-dependent cellular oxidoreductases activity tested by the standard procedure based on the reduction of the tetrazolium dye MTT) to its insoluble product formazan, which has a purple color. Cells at the initial concentration of […] per well were grown in a 96-well plate (CELLTREAT Scientific Products, Shirley, MA, USA); then, the culture fluid was discarded and fresh medium with peptides was added. After 48 h, formazan absorption was measured at 570 nm (xMark, Bio-Rad, Hercules, CA, USA). The amount of formazan produced is proportional to the number of viable cells. The viability of untreated cells was taken as 100%.

MCF-7 cells = test: MTT assay, MCF-7 cell viability; assay type: cell-based, human; conditions: 125 µM, 48 h
Method: as §1, §2

BT-20 cells [3] = test: MTT assay with cetuximab pre-treatment (EGFR inhibition); assay type: cell-based, human; conditions: 10 μg/mL cetuximab for 48 h, then 50 μM peptide for 48 h
Method: To examine the peptide effect on EGFR signaling, the EGFR-specific monoclonal antibody cetuximab (Merck, KGaA, Darmstadt, Germany) was added at the concentration of 10 μg/mL to cells grown for 24 h in 96-well plates. After 48 h of exposure to inhibitor, half the wells were treated with the B74–94 peptide at 50 μM concentration, and the cells were allowed to grow for another 48 h. Afterwards, cell proliferation was assessed by the MTT assay.

BT-20 cells [4] = test: Immunofluorescence confocal microscopy, entry into BT-20 cells; assay type: cell-based, human; conditions: 50 µM, 30 min incubation, His-tagged peptides (anti-His Alexa Fluor 647) or tagless binase (anti-binase, FITC), confocal laser scanning microscopy
Method: (§3) A549 cells (25,000 cells/well) and BT-20 cells (150,000 cells/well) were seeded on 4-well chamber slides and incubated for 24 h in 800 µL of 10% fetal bovine serum containing RPMI or DMEM, respectively. The medium was replaced with the fresh one, and the His-tagged B21–50 and B74–94 peptides or tagless binase were applied to each well at the final concentration of 50 µM. After 30 min of incubation, the medium was removed, and the cells were washed three times with ice-cold phosphate-buffered saline (PBS). Then, cells were fixed in a 4% paraformaldehyde solution for 15 min and permeabilized in 0.1% Triton-X100 solution in PBS for 10 min. Binase-treated cells were incubated overnight with anti-binase antibodies (1:500) at 4 °C [39]. Thereafter, the cells were washed three times in PBS containing 0.1% Tween for 10 min each and then were incubated with fluorescein isothiocyanate (FITC)-conjugated mouse anti-rabbit immunoglobulin G (IgG) (H+L) cross-adsorbed secondary antibody (Thermo Fisher Scientific, Inc., Waltham, MA, USA Cat.# 31584) at the concentration of 2 µg/mL in PBS containing 1% bovine serum albumin at room temperature for 45 min in the dark. Non-specific binding of the secondary antibodies was evaluated at the same experiment but without treatment with primary antibodies. […]

A549 cells = test: Immunofluorescence confocal microscopy, entry into A549 cells; assay type: cell-based, human; conditions: 50 µM, 30 min incubation, His-tagged peptides (anti-His Alexa Fluor 647) or tagless binase (anti-binase, FITC), confocal laser scanning microscopy
Method: as §3

HeLa cells = test: MTT assay, HeLa cell viability; assay type: cell-based, human; conditions: 48 h, versus untreated cells = 100%, triplicate
Method: as §1, §2

[5] = concentration not specified (5-125 µM tested)

## binase-derived peptide B74–94
[1]
  cytotoxicity of B74–94 (50 μM, 48 h) toward BT-20 cells by MTT assay after 48 h of pre-treatment with 10 μg/mL cetuximab (EGFR-specific antibody): 28%

## B95–109: chemically synthesized peptide corresponding to binase region 95–109 (IYKTTDHYATFTRIR; UniProt P00649 148-162, looked up, fragment)
BT-20 cells [2]; [5]
  decrease of cell viability: 15–25%

## B1–20: chemically synthesized peptide corresponding to binase region 1–20 (AVINTFDGVADYLIRYKRLP; UniProt P00649 54-73, looked up, fragment)
BT-20 cells [2]; [5]
  decrease of cell viability: 15–25%

## B74–94: chemically synthesized peptide corresponding to binase region 74–94 (DINYVSGFRNADRLVYSSDWL; UniProt P00649 127-147, looked up, fragment)
MCF-7 cells
  inhibition of cell proliferation (fold): two-fold
BT-20 cells [3]
  decrease of cytotoxicity after preliminary cell treatment with cetuximab: 28%
BT-20 cells [4]
  detection inside BT-20 cells: detected inside BT-20 cells
A549 cells
  detection inside A549 cells: not been visualized

## B21–50: chemically synthesized peptide corresponding to binase region 21–50 (DNYITKSQASALGWVASKGNLAEVAPGKSI; UniProt P00649 74-103, looked up, fragment)
HeLa cells; 50 µM
  decrease of cell viability: 45%
HeLa cells; 125 µM (highest concentration)
  decrease of cell viability: 93%
BT-20 cells [2]; 5 µM, versus non-treated cells, triplicate
  decrease of cell viability: 28%
BT-20 cells [2]; 50 µM, versus non-treated cells, triplicate
  decrease of cell viability: 23%
BT-20 cells [2]; 125 µM, versus non-treated cells, triplicate
  decrease of cell viability: 68%
BT-20 cells [4]
  detection inside BT-20 cells: detected inside BT-20 cells
A549 cells
  detection inside A549 cells: not been visualized
